Test results as given in PMC13326014 (Advanced Science, 2026).
Where two headings read alike, the source gives them in different places. Peptide text beside a SMILES is read from it.

Experiments:
Rin1056A β‐cells = conditions: cited from earlier work
hIAPP = biological target: T1, hIAPP (Homo sapiens, UniProt P10997); test: 1D 1H NMR loss of hIAPP signal (oligomerization kinetics); assay type: biochemical; conditions: 50 µM hIAPP, three‐fold excess (150 µM) inhibitor, PBS, 37°C
T1 construct: hIAPP (1–37; cat. # RP11278); purchased GenScript (Netherlands) RP11278; host or cells: chemical synthesis
T1 sequence (P10997 34-70): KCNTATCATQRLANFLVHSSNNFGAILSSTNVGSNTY
Experimental: • – hIAPP/QBP1 interaction experiments. 1D ^1H and 2D ^1H‐^1H total correlation spectroscopy (TOCSY) (mixing time = 60 ms) and 2D ^1H‐^1H nuclear Overhauser effect spectroscopy (NOESY) (mixing times = 80 and 250 ms) spectra were recorded at 10°C in 90% H2O/ 10% D2O with 1 mM K2HPO4 and 1 mM sodium acetate buffer (pH 5.5) on 100 µM hIAPP (pre‐monomerized in a small volume of hexadeuterated DMSO) on a Bruker 800 MHz (^1H) spectrometer equipped with a ^1H, ^13C, ^15N cryoprobe, Neo console and z‐gradients. These conditions were chosen because they were previously reported to greatly slow the aggregation of hIAPP, affording time to allow the spectra to be recorded. The solutions also contained 100 µM DSS as the internal chemical shift reference. Spectra were assigned with the aid of the program POKY [62], and the assignments have been deposited in the BMRB database; with access code = 53405. […] The spectra were then analyzed for changes which could reveal atomic‐level details on the interaction between hIAPP and QBP1. • – hIAPP aggregation experiments. A second set of NMR experiments were performed in PBS (90% H2O/ 10% D2O) at 37°C. […] These experiments were performed on a Bruker 600 MHz (^1H) spectrometer equipped with a ^1H, ^13C, ^15N, ^31P cryoprobe, Neo console, and z‐gradients. The final sample pH was verified in situ based on the phosphate ^3 ^1P chemical shift.

[1] = tested on: hIAPP‐induced cytotoxicity; conditions: cited from earlier work
INS‐1E β‐cells [2] = test: AlamarBlue metabolic activity, exogenous hIAPP oligomers
Experimental: Dried hIAPP or rIAPP peptide (0.5 mg) was reconstituted in 10 mM phosphate‐buffered saline (PBS, pH 7.4) with 2% DMSO and 2 mM sodium azide to a final concentration of 300 µM. rIAPP was included as a non‐amyloidogenic control peptide. After centrifugation at 16 000 x g for 50 min at 4°C to remove preformed aggregates, the supernatant (designated as “time zero”)—primarily populated by monomers—was used to initiate amyloidogenesis. Samples were vortexed and incubated at 25°C for 7 days without agitation to allow gradual formation of oligomers and fibrils. […] Aliquots were collected at different time points for biochemical characterization and β‐cells assays. For β‐cell assays involving extracellular hIAPP oligomers, samples were sonicated before use to disrupt early fibrils and enrich for oligomeric species.
(§1) The fusion peptide was N‐terminally biotinylated and the two peptides were separated by two glycine residues as flexible linkers to minimize steric hindrance: Biotin‐[…]. • – Cell culture . […] Viability was assessed using the CellTiter‐Glo Luminescent Cell Viability Assay (Promega, Madison, WI, USA), which quantifies ATP content as an indicator of metabolically active cells, and AlamarBlue (Invitrogen, Thermo Fisher), based on the reduction of resazurin to the fluorescent product resorufin in metabolically active cells, following the manufacturer's instructions. Luminescence (CellTiter‐Glo) and fluorescence (AlamarBlue; Ex 560 nm / Em 590 nm) were recorded using a FLUOstar Omega microplate reader (BMG LABTECH). Morphological changes were monitored by phase‐contrast microscopy (Leitz DM IRB, Leica, Germany) equipped with a Peltier temperature controller (Linkam, UK) set to 37°C and a Leica K5 camera. Images from at least three fields per condition were acquired at 10× and 20× magnification and analyzed with Leica LAS AF Lite software.

INS‐1E β‐cells [3] = test: CellTiter‐Glo ATP viability, exogenous hIAPP oligomers; conditions: 48 h, 16.7 mM glucose
Experimental: Dried hIAPP or rIAPP peptide (0.5 mg) was reconstituted in 10 mM phosphate‐buffered saline (PBS, pH 7.4) with 2% DMSO and 2 mM sodium azide to a final concentration of 300 µM. rIAPP was included as a non‐amyloidogenic control peptide. After centrifugation at 16 000 x g for 50 min at 4°C to remove preformed aggregates, the supernatant (designated as “time zero”)—primarily populated by monomers—was used to initiate amyloidogenesis. Samples were vortexed and incubated at 25°C for 7 days without agitation to allow gradual formation of oligomers and fibrils. […] Aliquots were collected at different time points for biochemical characterization and β‐cells assays. […]
as §1, with “Morphological changes were monitored by phase‐contrast microscopy (Leitz DM IRB, Leica, Germany) equipped with a Peltier temperature controller (Linkam, UK) set to 37°C and a Leica K5 camera. Images from at least three fields per condition were acquired at 10× and 20× magnification and analyzed with Leica LAS AF Lite software.” left out

INS‐1E‐hIAPP cells = test: ICC of Antp‐QBP1 uptake in INS‐1E‐hIAPP cells; assay type: cell-based, rat; conditions: Antp‐QBP1 10 µM, 48 h
Experimental: (§2) Rat insulinoma–derived pancreatic β‐cell lines (INS‐1E, INS‐1E‐hIAPP, and INS‐1E‐Ct) were kindly provided by Dr. Anna Novials (IDIBAPS, Barcelona) and characterized as previously described. INS‐1E‐hIAPP cells, which stably express human IAPP, were used as an overexpression model, whereas INS‐1E‐Ct cells transfected with an empty vector served as controls.
(§3) Cells were seeded in 24‐well plates (Corning, cat. #3526) on 12 mm coverslips pre‐treated with 1 mg/mL poly‐D‐lysine (Merck, cat. #P2636) in borate buffer (pH 8.0) at a density of 200,000 cells/mL. […] Primary antibodies against hIAPP (rabbit anti‐hIAPP, 1:400; Sigma‐Aldrich), biotin (goat anti‐biotin, 1:200; Invitrogen, cat. # 31852), oligomers (A11, 1:400, Invitrogen, cat. # AHB0052) and fibrils (OC, 1:200, Millipore, cat. # AB2286) were applied overnight at 4°C. Fluorophore‐conjugated secondary antibodies (Invitrogen) were added for 1 h at RT in darkness, followed by DAPI nuclear staining for 15 min. Coverslips were mounted with ProLong Gold (Life Technologies) and imaged using either a Leica DMI 6000 fluorescence microscope or a Leica Stellaris 8 stimulated emission depletion (STED) super‐resolution microscope, both equipped with a 40× oil‐immersion objective.

INS‐1E β‐cells [4] = test: ICC of Antp‐QBP1 uptake (anti‐biotin) in INS‐1E β‐cells; assay type: cell-based, rat; conditions: 48 h; for anti‐biotin (Red‐647) fluorescence intensity per cell: uptake by ICC
Experimental: as §3
ThT‐stained and ICC samples were imaged using a Leica Stellaris 8 STED super‐resolution confocal microscope (Leica Microsystems, Germany). For ThT imaging, samples in Ibidi μ‐Slide 4 Well ibiTreat coverslips were excited at 488 nm and emission was collected between 509–580 nm. For ICC, fluorophores were excited at 405 nm (DAPI; 420–480 nm, HyD S1), 488 nm (Alexa Fluor 488/FITC; 500–550 nm, HyD S2) and 653 nm (Alexa Fluor 647; 665–750 nm, HyD X3), all acquired sequentially in counting mode to prevent spectral overlap. […] Z‐stacks were collected in optimized mode to generate 3D reconstructions of ThT fluorescence and ICC labeling. Image processing and quantitative analysis were conducted using ImageJ/Fiji (NIH, USA). Specifically, a custom Fiji macro based on the “Find Maxima” algorithm was implemented to detect local intensity peaks across the selected fluorescence channels. Fluorescence intensity per cell (a.u.) was calculated as the total signal per field divided by the number of DAPI‐positive nuclei, and the number of fluorescence spots per cell was defined as total local maxima per field normalized to nuclei count. […]

INS‐1E‐Ct cells = test: CellTiter‐Glo ATP viability, empty‐vector control cells; assay type: cell-based, rat; conditions: Antp‐QBP1 5–20 µM, 48 h
Description: as §2
• – hIAPP overexpression conditions .

[5] = peptide alone, 48 h, Alamar Blue HS

Molecule: D‐ANFLVH
- molar excess relative to IAPP required to prevent toxicity (Rin1056A β‐cells): ten‐fold molar excess

Molecule: epigallocatechin‐3‐gallate [EGCG]
- slowing of the rate of hIAPP oligomerization (NMR signal loss) (hIAPP): ~50%

Molecule: FLPNF
- concentration required to reduce hIAPP‐induced cytotoxicity [1]: approximately 200 µM

Molecule: CC(C)C[C@H](NC(=O)[C@H](CC(N)=O)NC(=O)[C@H](CC(N)=O)NC(=O)[C@H](CO)NC(=O)[C@H](CO)NC(=O)[C@H](CCCNC(=N)N)NC(=O)[C@@H](NC(=O)[C@H](CC(C)C)NC(=O)[C@H](Cc1ccccc1)NC(=O)[C@H](CC(N)=O)NC(=O)[C@H](C)NC(=O)[C@H](CC(C)C)NC(=O)[C@H](CCCNC(=N)N)NC(=O)[C@H](CCC(N)=O)NC(=O)[C@@H](NC(=O)[C@H](C)NC(=O)[C@@H]1CSSC[C@H](NC(=O)[C@@H](N)CCCCN)C(=O)N[C@@H](CC(N)=O)C(=O)N[C@@H]([C@@H](C)O)C(=O)N[C@@H](C)C(=O)N[C@@H]([C@@H](C)O)C(=O)N1)[C@@H](C)O)C(C)C)C(=O)NCC(=O)N1CCC[C@H]1C(=O)N[C@H](C(=O)N[C@@H](CC(C)C)C(=O)N1CCC[C@H]1C(=O)N1CCC[C@H]1C(=O)N[C@H](C(=O)N[C@@H](CC(N)=O)C(=O)N[C@H](C(=O)NCC(=O)N[C@@H](CO)C(=O)N[C@@H](CC(N)=O)C(=O)N[C@H](C(=O)N[C@@H](Cc1ccc(O)cc1)C(N)=O)[C@@H](C)O)C(C)C)[C@@H](C)O)C(C)C [rIAPP, reference compound]
- effect of peptide alone on metabolic activity (INS‐1E β‐cells [2]): did not affect metabolic activity

Molecule: CC[C@H](C)[C@H](NC(=O)CNC(=O)[C@@H]1CCCN1C(=O)[C@H](Cc1c[nH]c2ccccc12)NC(=O)[C@H](Cc1c[nH]c2ccccc12)NC(=O)[C@H](CCCCN)NC(=O)[C@H](Cc1c[nH]c2ccccc12)NC(C)=O)C(=O)N[C@@H](Cc1ccccc1)C(N)=O [QBP1] (Ac-WKWWPGIF-NH2)
- effect of peptide alone on metabolic activity (INS‐1E β‐cells [2]; [5]): no significant effect

Molecule: CC[C@H](C)[C@H](NC(=O)CNC(=O)[C@@H]1CCCN1C(=O)[C@H](Cc1c[nH]c2ccccc12)NC(=O)[C@H](Cc1c[nH]c2ccccc12)NC(=O)[C@H](CCCCN)NC(=O)[C@H](Cc1c[nH]c2ccccc12)NC(=O)CNC(=O)CNC(=O)[C@H](CCCCN)NC(=O)[C@H](CCCCN)NC(=O)[C@H](Cc1c[nH]c2ccccc12)NC(=O)[C@H](CCCCN)NC(=O)[C@H](CCSC)NC(=O)[C@H](CCCNC(=N)N)NC(=O)[C@H](CCCNC(=N)N)NC(=O)[C@H](CC(N)=O)NC(=O)[C@H](CCC(N)=O)NC(=O)[C@H](Cc1ccccc1)NC(=O)[C@H](Cc1c[nH]c2ccccc12)NC(=O)[C@@H](NC(=O)[C@H](CCCCN)NC(=O)[C@@H](NC(=O)[C@H](CCC(N)=O)NC(=O)[C@H](CCCNC(=N)N)NC(=O)CCCC[C@@H]1SC[C@@H]2NC(=O)N[C@@H]21)[C@@H](C)CC)[C@@H](C)CC)C(=O)N[C@@H](Cc1ccccc1)C(=O)O [Antp‐QBP1]
- effect of peptide alone on ATP levels (INS‐1E β‐cells [3]): did not alter ATP levels
- intracellular delivery by immunostaining (INS‐1E‐hIAPP cells): efficient intracellular delivery
- effect of peptide alone on metabolic activity (INS‐1E β‐cells [2]; [5]): no significant effect
- number of intracellular Red‐647 fluorescent spots per cell vs hIAPP alone (INS‐1E β‐cells [4]; 10 µM Antp‐QBP1 alone or with 10 µM hIAPP): significantly increased
- anti‐biotin (Red‐647) fluorescence intensity per cell (INS‐1E β‐cells [4]; 10 µM Antp‐QBP1 alone): 400–600 a.u./cell
- anti‐biotin (Red‐647) fluorescence intensity per cell (INS‐1E β‐cells [4]; 10 µM Antp‐QBP1 with 10 µM hIAPP oligomers): ~200 a.u./cell
- effect on ATP levels in control (Ct) cells (INS‐1E‐Ct cells): did not alter ATP levels
